Source: publication PMC3970809, “Spectral characteristics of the mutant form GGBP/H152C of D-glucose/D-galactose-binding protein labeled with fluorescent dye BADAN: influence of external factors” (PeerJ, 2014)

Target: T1, D-glucose/D-galactose-binding protein (GGBP), mutant form GGBP/H152C labeled with BADAN (Escherichia coli, UniProt P0AEE5, H175C)
T1 construct: gene mglB; GGBP/H152C-BADAN (BADAN linked to Cys 152)
Assay: BADAN fluorescence titration (Kd by nonlinear regression); stopped-flow binding kinetics

T1 sequence (P0AEE5 24-332 H175C limits assumed): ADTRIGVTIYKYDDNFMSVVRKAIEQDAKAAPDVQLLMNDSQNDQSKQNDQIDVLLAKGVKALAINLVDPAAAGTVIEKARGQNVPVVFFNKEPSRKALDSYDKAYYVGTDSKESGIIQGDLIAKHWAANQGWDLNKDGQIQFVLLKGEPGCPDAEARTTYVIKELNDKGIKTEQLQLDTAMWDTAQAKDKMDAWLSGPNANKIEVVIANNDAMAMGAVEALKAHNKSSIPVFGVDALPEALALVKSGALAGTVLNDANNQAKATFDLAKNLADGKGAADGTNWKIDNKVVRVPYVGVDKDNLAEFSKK

## OC[C@H]1OC(O)[C@H](O)[C@@H](O)[C@@H]1O (stereo partly shown) [Glc]
  Kd: 8.5 µM
